According to US12661349B1, “Pharmaceutically acceptable salt of sphingosine-1-phosphate receptor agonist, and crystalline form thereof” (LG CHEM, LTD., priority 2021, dated 2026):

Test: Water solubility by quantitative analysis (HPLC)
Assay type: physicochemical
Details: for Water solubility (μg/mL, HPLC) 24 hr: comparison of salt forms of Compound 1; for water solubility: quantitative analysis by HPLC, crystalline form of the salt
Method: (4) Quantitative Analysis (HPLC)
Approximately 26.7 mg of the sample was precisely weighed and placed in a 500 mL volumetric flask. 450 mL of a diluted solution (methanol:purified water=1:1) was added thereto, completely dissolved, and then filled with the diluted solution up to the marked line. HPLC equipment and analysis methods are represented in Table 1 below.
Quantitative analysis was carried out in the same manner as in Example 2.
Various types of salts were prepared. After analyzing characteristics in the same manner as above, the comparisons with potassium salt and methanesulfonic acid salt (mesylate) are represented in Table 4 below.

| SMILES | Water solubility (μg/mL, HPLC) 24 hr (HPLC quantitation, 24 hr) [µg/mL] | water solubility [mg/mL] | solubility at 24 h (thermodynamic from solid, HPLC quantitation, 24 hr, comparison of salt forms of Compound 1, read-out: Water solubility (μg/mL, HPLC) 24 hr) [µg/mL] |
| --- | --- | --- | --- |
| CC(C)n1nc(Cl)c2cc(COc3ccc4c(c3)CCC(CN3CCC(C(=O)[O-])CC3)=C4Cl)ccc21.[K+] [K salt (1 eq.), potassium salt of 1-[1-chloro-6-(3-chloro-1-isopropyl-1H-indazol-5-ylmethoxy)-3,4-dihydro-naphthalen-2-ylmethyl]-piperidine-4-carboxylic acid] | 33238.5 | 33.2385 |  |
| CC(C)n1nc(Cl)c2cc(COc3ccc4c(c3)CCC(CN3CCC(C(=O)O)CC3)=C4Cl)ccc21.CS(=O)(=O)O [Mesylate (1 eq.), methanesulfonic acid salt (mesylate) of 1-[1-chloro-6-(3-chloro-1-isopropyl-1H-indazol-5-ylmethoxy)-3,4-dihydro-naphthalen-2-ylmethyl]-piperidine-4-carboxylic acid] | 536.8 | 0.5368 |  |
| CC(C)n1nc(Cl)c2cc(COc3ccc4c(c3)CCC(CN3CCC(C(=O)O)CC3)=C4Cl)ccc21 [Free form, 1-[1-Chloro-6-(3-chloro-1-isopropyl-1H-indazol-5-ylmethoxy)-3,4-dihydro-naphthalen-2-ylmethyl]-piperidine-4-carboxylic acid] |  |  | 3.7 |
